These results are taken from paper PMC11638965, “Leveraging Dual-Ligase Recruitment to Enhance Protein Degradation via a Heterotrivalent Proteolysis Targeting Chimera” (Journal of the American Chemical Society, 2024).

Entries after “also recorded” stand apart in the source; their conditions may differ. Like-named read-outs stand apart in the source and are kept apart here.

Test [1] deals with BRD4 (Homo sapiens, UniProt O60885). The test is described as follows: Live cell kinetic HiBiT degradation assay, HiBiT-BRD4 HEK293 cells (parental, CRBN KO, VHL KO). Format: cell-based. Conditions: parental, CRBN KO and VHL KO HiBiT-BRD4 HEK293 cells (Figure S5); listed as 93. The protocol:
HEK293 HiBiT-BRD2 (LgBiT stable), HEK293 HiBiT-BRD3 (LgBiT stable), and HEK293 HiBiT-BRD4 (LgBiT stable) were created using CRISPR/Cas9 to insert at HiBiT tag at the N-terminal genomic loci of BRD2, BRD3, or BRD4 in a cell line stably expressing LgBiT protein as described previously.[23]
For kinetic degradation experiments, HEK293 HiBiT-BRD2, 3, or 4 (LgBiT stable) cells and HEK293 HiBiT-BRD4 (LgBiT) CRBN KO and VHL KO cells were plated at 20,000 cells/well in DMEM +10% FBS in white 96-well tissue culture plates and allowed to adhere overnight. The next day, media was removed and 90 μL of prewarmed CO2-independent medium (Gibco) containing Endurazine (Promega) at a 1:100 dilution from stock was added. Plates were incubated at 37 °C for 3 h to allow luminescence to equilibrate. A threefold dilution series of each PROTAC at 10x the desired final concentration was prepared (with the amount of DMSO in each treatment condition kept constant). After luminescence equilibration, a preread luminescence measurement was taken (prior to compound addition) to allow for baseline normalization to account for possible plating differences. Cells were then treated with 10 μL of the prepared PROTAC dilution series (in triplicate or quadruplicate). Treated plates were placed in a GloMax Discover luminometer (Promega) prewarmed to 37 °C and luminescence measurements were obtained every 7 min for 24 h. Kinetic degradation plots were obtained by first normalizing time course luminescence readings in each well to the preread measurement, then to the average value of the DMSO only control at each time point. Data was analyzed using GraphPad Prism (version 8) and excel. Dmax values were identified as the lowest luminescence reading in each well. Rate constant values were calculated using a one phase exponential decay Y = (Y0-Plateau) e(K*^X) + Plateau using Prism (Y0 constrained to 1). Dmax 50 values were calculated by plotting Dmax as a function of concentration, then fitting plots using the following equation: [drawing 1] to determine IC50.
HiBiT-BRD4 (LgBiT stable) HEK293 cells (Promega) were used to generate both VHL KO HiBiT-BRD4 (LgBiT stable) and CRBN KO HiBiT-BRD4 (LgBiT stable) cell lines. For VHL, gRNAs targeting exon 1 ([…]) and exon 2 ([…]) and for CRBN, gRNAs targeting exon 3 ([…]) and exon 6 ([…]) were purchased from IDT DNA (Table 5). For each gRNA, tracrRNA/crRNA duplexes were formed by combining 10 μL of 100 μM Alt-R […] (IDT), 100 μM Alt-R crRNA (IDT) and heating at 95C for 5 min, then were allowed to cool to room temp for 20 min. RNPs were then formed by combining 75 pmol Cas9 (IDT) with 2.4 μL total of prepared tracrRNA/crRNA complex (1.2 μL for each gRNA targeting each exon). Cells were then trypsinized and resuspended at 10,000,000 cells/mL in 1 mL of Mirus Ingenio electroporation solution. Three μL of 100 μM electroporation enhancer (Mirus) was added, along with 3 μL of RNP solution. Cells were electroporated in 2 mm cuvettes using a BioRad system (190 V, 950 μF, infinite resistance) and were then plated in a T75 flask in full growth medium to allow for recovery. After recovery from electroporation, knockout pools were sorted for single cells in 96-well tissue culture treated plates. Clonal populations which expanded from single cells were then screened for loss of function of VHL by treating with MZ1, or loss of function of CRBN by treating with dBET6, using a HiBiT-BRD4 luminescent readout assay. Genomic DNA isolated from candidate clones was then PCR-amplified (Table of primers below), Gibson-assembled into a pF1A plasmid backbone, transformed into E. coli., and then Sanger sequenced to confirm presence of indels in the targeted exons. […] VHL exon 3 carried a 19 bp deletion on one allele, and a 1 bp insertion on the other allele, both occurring after the premature stop codon in exon 1.
In general terms: HiBiT is a short tag that completes a luciferase, so light tracks the accessible tagged protein.

For test [2], the system named is RKO WT cells. Nature of the test: cells. Format: cell-based, human. The protocol:
(§1) RKO WT, VHL KO, CRBN KO and CRBN/VHL dKO cells were cultured in Dulbecco’s modified Eagle’s medium supplemented with 10% FCS and 1% penicillin–streptomycin. RKO CRBN KO and VHL KO were generated previously.[45] RKO CRBN/VHL dKO cells were generated by transiently expressing pSpCas9(BB)-2A-GFP (PX458) (Addgene 48138) loaded with a short guide RNA (sgRNA) targeting VHL (Fwd: […], Rev: […]) in RKO CRBN KO cells. Clones were single cell seeded and checked for VHL and CRBN double deletion via Western blot or PCR on genomic DNA (gDNA).
Cells were seeded in 96-well plates at a cell density of 3750 cells per well and treated for 3 days with DMSO or drug at ten √10 serial diluted concentrations. […] Cell viability was assessed using the CellTiter-Glo assay (CellTiter-Glo Luminescent Cell Viability Assay, Promega G7573) according to manufacturer instructions. Luminescence signal was measured on a Multilabel Plate Reader Platform Victor X3 model 2030 (PerkinElmer). Survival curves and EC50 values were determined using GraphPad Prism v.10.0.3 by fitting a nonlinear regression to the log10-transformed drug concentration and the relative viability after normalization of each data point to the mean luminescence of the lowest drug concentration.

In test [3] the test system is RKO CRBN/VHL dKO cells. Nature of the test: Cell viability assay (CellTiter-Glo). Format: cell-based, human. The protocol:
as §1
(§2) Cells were seeded in 96-well plates at a cell density of 3750 cells per well and treated for 3 days with DMSO or drug at ten √10 serial diluted concentrations. Starting concentration for all drugs was 10 μM, and each treatment was performed in biological triplicates. Cell viability was assessed using the CellTiter-Glo assay (CellTiter-Glo Luminescent Cell Viability Assay, Promega G7573) according to manufacturer instructions. Luminescence signal was measured on a Multilabel Plate Reader Platform Victor X3 model 2030 (PerkinElmer). Survival curves and EC50 values were determined using GraphPad Prism v.10.0.3 by fitting a nonlinear regression to the log10-transformed drug concentration and the relative viability after normalization of each data point to the mean luminescence of the lowest drug concentration.

Test [4] concerns RKO VHL KO cells. The test is described as follows: Cell viability assay (CellTiter-Glo). Format: cell-based, human. The protocol:
as §1, §2
Background: Cellular ATP, detected with luciferase, serves as a proxy for viable cell number.

Test [5] has as its system RKO CRBN KO cells. The test is described as follows: Cell viability assay (CellTiter-Glo). Format: cell-based, human. Conditions: 500 pM to 10 μM, 3 days (Figure 10, Table S6).
Test [6] has as its system RKO CRBN KO cells. The test is described as follows: Cell viability assay (CellTiter-Glo). Format: cell-based, human. Conditions: Homo sapiens, 72 h, 316 pM to 10 μM, 3 days, n = 6 (Figure 3C, Table S1). The method, then: as §1, §2
Test [7] deals with K562 cells. The test is described as follows: Cell viability assay (CellTiter-Glo). Format: cell-based, human. Conditions: Homo sapiens; WT K562, 5.12 pM to 10 uM, n = 3 (Table S4). The protocol: as §2, with “[…],” for “3750 cells per well and treated for 3 days with DMSO or drug at ten √10 serial diluted concentrations. Starting concentration for all drugs was 10 μM,”
In test [8] the test system is KBM7 cells. Nature of the test: Cell viability assay (CellTiter-Glo). Format: cell-based, human. Conditions: Homo sapiens, KBM-7; WT KBM7, 5.12 pM to 10 uM, n = 3 (Table S4). The method, then:
as §2, with “[…],” for “3750 cells per well and treated for 3 days with DMSO or drug at ten √10 serial diluted concentrations. Starting concentration for all drugs was 10 μM,”

The mark [9] stands for this setting: Homo sapiens, 72 h, 500 pM to 10 μM, 3 days (Figure 10, Table S6), read-out: EC50 RKO WT.

For the molecule `Cc1ncsc1-c1ccc([C@H](C)NC(=O)[C@@H]2C[C@@H](O)CN2C(=O)[C@@H](NC(=O)COCC(C)(COCCOCCOCCNc2cc3c(cc2F)C(=O)N(C2CCC(=O)N(C)C2=O)C3=O)COCCOCCOCCOC(=O)C[C@@H]2N=C(c3ccc(Cl)cc3)c3c(sc(C)c3C)-n3c(C)nnc32)C(C)(C)C)cc1` (mixture of isomers) [neg-AB3067 (93), (17S)-11-((2-(2-(2-((6-fluoro-2-(1-methyl-2,6-dioxopiperidin-3-yl)-1,3-dioxoisoindolin-5-yl)amino)ethoxy)ethoxy)ethoxy)methyl)-17-((2S,4R)-4-hydroxy-2-(((S)-1-(4-(4-methylthiazol-5-yl)phenyl)ethyl)carbamoyl)pyrrolidine-1-carbonyl)-11,18,18-trimethyl-15-oxo-3,6,9,13-tetraoxa-16-azanonadecyl 2-((S)-4-(4-chlorophenyl)-2,3,9-trimethyl-6H-thieno[3,2-f][1,2,4]triazolo[4,3-a][1,4]diazepin-6-yl)acetate], the “on-target BRD4 degradation activity (in words)” value in test [1] was “inactive in VHL KO cells; also recorded: decreased relative to 27 in parental and CRBN KO cells”. Further, the EC50 in test [2] (500 pM to 10 μM, 3 days (Figure 10, Table S6), listed as 93, read-out: EC50 RKO WT) is 107 nM; in test [2] (setting [9]), around 106 nM; in test [3] (500 pM to 10 μM, 3 days (Figure 10, Table S6), read-out: EC50 RKO CRBN/VHL dKO), around 400 nM; in test [3] (Homo sapiens, 72 h, 500 pM to 10 μM, 3 days (Figure 10, Table S6), read-out: EC50 RKO CRBN/VHL dKO), 420 nM; in test [4] (500 pM to 10 μM, 3 days (Figure 10, Table S6)) it was around 400 nM; in test [4] (Homo sapiens, 72 h, 500 pM to 10 μM, 3 days (Figure 10, Table S6)), 391 nM. The EC50 in test [5] (listed as 93) is 105 nM; in test [5] (Homo sapiens, 72 h) it was around 106 nM.

`Cc1ncsc1-c1ccc(CNC(=O)[C@@H]2C[C@@H](O)CN2C(=O)[C@@H](NC(=O)COCCOCCOCCNC(=O)C[C@@H]2N=C(c3ccc(Cl)cc3)c3c(sc(C)c3C)-n3c(C)nnc32)C(C)(C)C)cc1` [MZ1, reference compound]: the EC50 in test [2] (Homo sapiens, 72 h, 316 pM to 10 μM, 3 days, n = 6 (Figure 3C, Table S1), read-out: EC50 RKO WT) is 212 nM; in test [2] (setting [9]) it was 160 nM; in test [2] (Homo sapiens, RKO WT, 316 pM to 10 μM, n = 6, combination: dBET6 and MZ1 each from 5 μM (Table S7), read-out: EC50 RKO), 152 nM; in test [2] (Homo sapiens, WT RKO, 316 pM to 10 μM, n = 3 (Table S4), read-out: EC50 RKO), 188 nM; in test [6] it was 181 nM; in test [3] (Homo sapiens, Figure 10 experiment, read-out: EC50 RKO VHL/CRBN dKO), above 5000 nM. In addition, the EC50 in test [3] (Homo sapiens, both VHL and CRBN knocked out (Figure 3C), read-out: EC50 RKO CRBN/VHL dKO) was above 10000 nM; in test [4] (Homo sapiens, 72 h, 316 pM to 10 μM, 3 days, n = 6 (Figure 3C, Table S1)) it was above 10000 nM; in test [4] (Homo sapiens, Figure 10 experiment), above 5000 nM; in test [7], 216 nM; in test [8], 66.2 nM; in test [5] (Homo sapiens, 72 h) it was 136 nM.
